Measured values from patent US20260224512A1, “USE OF 5-METHOXY-2-AMINOINDAN ("MEAI") IN METHODS FOR TREATING METABOLIC SYNDROME” (Clearmind Labs Corp., priority 2022, published 2026).

Columns and labels:
[1] = test system: C57BL/6 mice; assay: Acute multi-parameter metabolic assessment (food and water intake, respirometry); assay type: in vivo
Experimental: (§1) Male 6-week-old C57BL/6 mice (Envigo, Israel) were maintained under a 12-h light/dark cycle and fed ad libitum. A total of 32 animals were divided into four experimental groups (N=8 mice per group) receiving single doses of 40, 60, or 100 mg/kg of MEAI or vehicle (sterile water), which was administered via oral gavage two hours prior to the dark phase. The animals were monitored for 48 hours post-dose for drug tolerability, food and water intakes as well as activity and metabolic parameters. At the end of the experiment, the animals were euthanized, and tissues (brain, liver, fat, and kidney) and blood were collected and stored frozen for future analyses. To generate diet-induced obesity, C57BI6/J mice were fed either a high-fat diet (HFD) (60% of calories from fat, 20% from protein, and 20% from carbohydrates; Research Diet, D12492) or a standard laboratory diet (STD, 14% fat, 24% protein, 62% carbohydrates; NIH-31 rodent diet) for 18 weeks.
(§2) Multi-parameter metabolic assessment. The metabolic profiles and food and water intakes of the mice were assessed by using the Promethion High-Definition Behavioral Phenotyping System (Sable Instruments, Inc., Las Vegas, NV, USA). Data acquisition and instrument control were performed using MetaScreen software version 2.2.18.0, and the obtained raw data were processed using ExpeData version 1.8.4 using an analysis script detailing all aspects of data transformation. Mice with free access to food and water were subjected to a standard 12 h light/12 h dark cycle, which consisted of a 48 h acclimation period followed by 24 h of sampling. Respiratory gases were measured by using the GA-3 gas analyzer (Sable Systems, Inc., Las Vegas, NV, USA) using a pull-mode, negative pressure system. Air flow was measured and controlled by FR-8 (Sable Systems, Inc., Las Vegas, NV, USA), with a set flow rate of 2000 mL/min. Water vapor was continuously measured and its dilution effect on O2 and CO2 was mathematically compensated. Respiratory exchange rate (RER) was calculated as the ratio of CO2 produced (VCO2) to O2 consumed (VO2) using Equation (1): […]
(§3) Total energy expenditure (TEE) was calculated using VO2 and RER, according to Equation (2): […]
(§4) Fat oxidation (FO) and carbohydrate oxidation (CHO) were calculated using VO2 and VCO2 based on Equations (3) and (4), respectively: […]

[2] = test system: DIO mouse model; assay: Chronic MEAI in DIO model: food consumption and energy metabolism; assay type: in vivo, mice; conditions: 40 mg/kg/day
Experimental: (§5) Effect of MEAI on Obesity. Male C57BL/6 mice were used to establish DIO by feeding them a high-fat diet (HFD; 60% Kcal fat, 20% Kcal protein, and 20% Kcal carbohydrates; Research Diet, D12492) for 18 weeks. After this period, mice were treated with either vehicle (sterile water, N=8) or MEAI (N=11) daily for 28 days by gavage at a dose of 40 mg/kg/day. Age-matched control mice (N=10) on a standard diet (STD; 14% Kcal fat, 24% Kcal protein, 62% Kcal carbohydrates; NIH-31 rodent diet) and received vehicle daily. The body weight of all mice was monitored daily, and total body fat and lean mass were determined by EchoMRI-100H™ (Echo Medical Systems LLC, Houston, TX, USA). On Day 29, at the end of the experimental period, mice were euthanized by a cervical dislocation under anesthesia. The kidneys, brain, liver, and fat pads were removed and weighed, and samples were either snap-frozen or fixed in buffered 4% formalin. Trunk blood was collected to determine biochemical parameters.
as §2, §3, §4

[3] = test system: C57BL/6 mice; assay: Sucrose preference test; assay type: in vivo; conditions: single dose 40 mg/kg
Experimental: Sucrose Preference Test. Thirteen-week-old male C57BL/6 mice maintained on a STD and housed individually were habituated to two water bottles in their home cage for 48 h prior to the test. Baseline intake was measured by weighing the bottles. On the test day (Day 1), 2 h before the onset of the dark phase, fresh water and a 1.5% sucrose solution were added to the bottles, and mice were subsequently treated orally with MEAI (40 mg/kg, N=8) or sterile water (N=8). The mice were allowed to drink from either bottle freely for 24 h, after which the bottles were weighed to measure consumption. The study was repeated for an additional day (Day 2), with the bottles switched in position (in the cage) to account for side preference. The sucrose and water intake over the two days were averaged, and the sucrose preference index was calculated as the average consumed sucrose solution divided by the average volume of total consumed liquid (average water plus average sucrose solution).

[4] = test system: C57BL/6 mice; assay: Acute wheel running and locomotive activity; assay type: in vivo
Experimental: as §1
(§6) Wheel running and locomotive activity. The assessment of wheel running and locomotor activity was performed using the Promethion High-Definition Behavioral Phenotyping System (Sable Instruments, Inc., Las Vegas, NV, USA). Wheel revolutions were measured with a monitor that recorded voluntary wheel running activity, and locomotor activity was quantified using disruptions of infrared XYZ beam arrays, with a beam spacing of 0.25 cm.

[5] = test system: DIO mouse model; assay: Glucose tolerance test (ipGTT), insulin tolerance test (ipITT) and glycemic parameters in DIO mice; assay type: in vivo; conditions: 40 mg/kg/day
Experimental: as §5
Glucose Tolerance Test (ipGTT) and the Insulin Tolerance Test (ipITT). On day 25 of the experiment, mice were subjected to an overnight fasting and then injected with glucose (1.5 g/kg i.p.) on the following day (day 26). Blood glucose levels were determined at 0, 15, 30, 45, 60, 90, and 120 min after injection using the Contour® glucometer (Bayer, Pittsburgh, PA, USA). The mice were then fasted for 6 h on the next day (day 27) before being administered insulin (0.75 U/kg, i.p.; Actrapid vials, Novo Nordisk A/S, Bagsværd, Denmark). Blood glucose levels were determined at the same intervals as described above. To assess insulin resistance, the homeostasis model assessment insulin resistance (HOMA-IR) was calculated as fasting serum insulin ([μU/mL]×fasting plasma glucose [mmol/L]/22.5). The relative insulin sensitivity index (ISI) was calculated as 1/(glucose×insulin)×1000, with glucose expressed as mg/dl and insulin as mU/L.
(§7) Blood and urine biochemistry. Serum levels of alanine aminotransferase (ALT), aspartate aminotransferase (AST), alkaline phosphatase (ALP), cholesterol, triglycerides, high-density lipoprotein (HDL), and low-density lipoprotein (LDL) were determined by using the Cobas C-111 chemistry analyzer (Roche, Switzerland). Blood urea nitrogen (BUN) was calculated based on serum urea levels as follows: BUN (mg/dL)=Urea (mg/dL)/2.1428. Fasting blood glucose was measured using the Contour® glucometer (Bayer, Pittsburgh, PA). Serum insulin was determined using an Ultra-Sensitive Mouse Insulin ELISA kit (Crystal Chem, Inc., Elk Grove Village, IL, USA).

[6] = test system: DIO mouse model; assay: Kidney and liver weight in DIO mice; assay type: in vivo; conditions: 40 mg/kg/day, HFD-fed mice
Experimental: as §5

[7] = test system: DIO mouse model; assay: Blood biochemistry in DIO mice; assay type: in vivo; conditions: 40 mg/kg/day
Experimental: as §5, §7

[8] = test system: C57BL/6 mice; assay: Acute single-dose tolerability of MEAI; assay type: in vivo
Experimental: as §1

[9] = test system: DIO mouse model; assay: Chronic MEAI in DIO model: wheel running and locomotive activity; assay type: in vivo, mice; conditions: 40 mg/kg/day
Experimental: as §5, §6

[10] = test system: DIO mouse model; assay: Chronic MEAI in HFD-induced obesity (DIO) model: body weight and body composition; assay type: in vivo, mice; conditions: 28 days
Experimental: as §5

[11] = test system: DIO mouse model; assay: Hepatic triglyceride and cholesterol content, Oil Red O staining in DIO mice; assay type: in vivo; conditions: 40 mg/kg/day
Experimental: as §5
Hepatic Triglyceride and Cholesterol Content. Liver tissue was extracted as described in (Tam et al., 2012), and its cholesterol and triglycerides contents were determined using a Cobas C-111 chemistry analyzer (Roche, Switzerland).
Histopathology. First, 5 μm paraffin-embedded liver sections from 5 animals per group were stained with hematoxylin-eosin staining. Liver images were captured using a Zeiss Axio Scope A1 light microscope (Carl Zeiss AG, Jena, Germany equipped with a Zeiss AxioCam ICc5 color camera. Ten random 40× fields of view were taken from each animal to obtained representative images.
Oil Red O staining. Liver cryosections (8 μm) were stained with Oil Red O (Cat #ab150678; Abcam) following the manufacturer's protocol. Images were acquired as described above. For quantitative analysis of Oil Red O staining, the area of lipid droplets in the liver cryosections was measured using the ImageJ software.

[12] = single dose 40, 60, 100 mg/kg, 24-hour period
[13] = single dose, 60 and 100 mg doses
[14] = compared to HFD vehicle-treated group
[15] = single dose, 40 mg/kg and above
[16] = in comparison with HFD-vehicle group
[17] = compared to HFD vehicle control

For `COc1ccc2c(c1)CC(N)C2` (stereo not shown) [MEAI, 5-methoxy-2-aminoindan], the “carbohydrate oxidation (CHO) rate” value [1, 12] was “corresponding elevations”, the “fat oxidation (FO) rate” value [1, 12] was “corresponding elevations” and the “total energy expenditure (TEE)” value [1, 12] was “significant dose-dependent increases”. The “rate of carbon dioxide emission (VCO2)” value [1, 13] was “higher rates”, the “rate of oxygen consumption (VO2)” value [1, 13] was “higher rates” and the “respiratory exchange rate (RER)” value ([1]; single dose, light phase, 60 and 100 mg doses) was “increase”. For the same compound, the water consumption ([1]; single oral dose 40, 60 or 100 mg/kg) was “no notable changes”, the “feeding patterns (food intake)” value ([1]; single oral dose 40, 60 or 100 mg/kg, dark and light phases, vs vehicle) was “did not reach statistical significance” and the “carbohydrate oxidation (CHO)” value ([2]; HFD-fed mice) was “no effect of the drug itself”. The “respiratory exchange rate (RER)” value ([2]; HFD-fed mice, in comparison to STD vehicle group) was “slightly decreased”, the “food intake per meal” value ([2]; HFD-fed mice, both MEAI and vehicle HFD groups) was “reduction in food intake per meal” and the carbon dioxide production [2, 14] was “slightly increased”. For the same compound, the oxygen consumption [2, 14] was “slightly increased”, the energy expenditure ([2]; compared to both HFD and STD vehicle groups, light and dark phases) was “significant increase” and the “overall rate of fat oxidation (FO)” value ([2]; compared to both HFD- and STD-vehicle groups) was “increase”. For the same compound, the water intake ([2]; obese mice) was “did not have any effect”, the water intake levels [3] was “without any accompanying decrease” and the “acute preference for sucrose solution” value ([3]; 1.5% sucrose vs water, most evident in initial 24-hour period) was “significantly reduced”. The “preference for sucrose solution” value ([3]; subsequent 24-hour period) was “slight reduction”, the voluntary wheel running ([4]; single dose 100 mg/kg) was “significant suppression” and the “total number of beam breaks (ambulatory and fine movements)” value ([4]; single dose 40, 60, 100 mg/kg) was “no significant changes”. The voluntary wheel running ([4]; single dose 40 and 60 mg/kg) was “minor elevations”, the “directed voluntary activity (pedestrian locomotion)” value [4, 15] was “significant and dose-dependent increase” and the pedestrian speed [4, 15] was “significant and dose-dependent increase”. For the same compound, the total pedometer count ([4]; single dose, all doses tested (40, 60, 100 mg/kg)) was “increase”, the HOMA-IR [5] was “beneficial effects” and the fasting blood glucose [5] was “reduced”. For the same compound, the “glucose metabolism (glucose and insulin tolerance tests)” value [5] was “significant improvement”, the insulin levels [5] was “reduced” and the “insulin sensitivity (insulin tolerance test)” value [5] was “normalized”. The “insulin sensitivity index (ISI)” value [5] was “beneficial effects”, the kidney-to-body weight ratio [6] was “normalized” and the liver weight [6] was “reduced”. For the same compound, the “liver weight to body weight ratio” value [6] was “normalized”, the HDL-to-LDL ratio ([7]; HFD-fed mice) was “increased” and the “blood urea nitrogen (BUN) levels” value ([7]; HFD-fed mice) was “slight improvements”. The cholesterol levels ([7]; HFD-fed mice, not statistically significant) was “tendency towards decreased”, the circulating triglyceride levels ([7]; any of the study groups) was “no significant alterations” and the HDL levels ([7]; compared to HFD vehicle group) was “without notable changes”. For the same compound, the LDL levels ([7]; compared to HFD vehicle group) was “significantly reduced”, the ALP levels ([7]; compared to HFD-vehicle group) was “significantly reduced” and the ALT levels ([7]; compared to HFD-vehicle group) was “did not significantly alter”. The AST levels ([7]; compared to HFD-vehicle group) was “did not significantly alter”, the deaths after administration ([8]; single oral dose 100 mg/kg, within a few hours, with stress of metabolic testing) was “two subjects in the 100 mg/kg group died” and the “drug tolerability, changes in behavior” value ([8]; single oral dose 40 and 60 mg/kg, lean mice) was “well-tolerated, with no observable changes in behavior”. For the same compound, the “pedestrian locomotive activity, speed and total distance relative to STD-vehicle group (over-stimulatory effect)” value ([9]; HFD-fed mice) was “did not surpass the levels of the STD-vehicle treated group”, the “time spent engaging in various activities within the cage” value ([9]; HFD-fed mice) was “preference for voluntary activities” and the voluntary wheel running ([9]; HFD-fed mice) was “increased capability”. For the same compound, the “voluntary actions such as pedestrian activity and grooming (ambulatory activity)” value ([9]; HFD-fed mice, throughout the day, more prominent in dark phase) was “significantly increased”, the pedestrian locomotion speed [9, 16] was “increased” and the pedestrian locomotive activity [9, 16] was “increased”. For the same compound, the total distance travelled [9, 16] was “increased”, the “body weight of HFD-fed mice” value ([10]; 40 mg/kg/day by gavage) was “significantly reduced” and the “decrease in total body weight compared to the obese vehicle-treated group” value ([10]; 40 mg/kg/day by gavage, HFD-fed mice) was ~15%. For the same compound, the “adiposity associated with obesity” value ([10]; 40 mg/kg/day, HFD-fed mice) was “reduced”, the “lean body mass, lean body mass ratio, net lean mass” value ([10]; 40 mg/kg/day, HFD-fed mice) was “preserved” and the overall fat mass ([10]; 40 mg/kg/day, HFD-fed mice) was “reducing”. For the same compound, the hepatic cholesterol levels [11, 17] was “trend toward a reduction”, the liver triglycerides [11, 17] was “significant reductions” and the “Oil Red O staining” value [11, 14] was “decrease”. The lipid vacuole numbers [11, 14] was “reduced”.
